Consider 25 compounds from US12612380B2, “Non-lysosomal glucosylceramidase inhibitors and uses thereof” (ALECTOS THERAPEUTICS INC., priority 2019, dated 2026).

The IC50 is the concentration needed to halve the response being measured.

The target of one experiment is T1, GBA2 (Homo sapiens, UniProt Q9HCG7).
T1 sequence (Q9HCG7 1-927): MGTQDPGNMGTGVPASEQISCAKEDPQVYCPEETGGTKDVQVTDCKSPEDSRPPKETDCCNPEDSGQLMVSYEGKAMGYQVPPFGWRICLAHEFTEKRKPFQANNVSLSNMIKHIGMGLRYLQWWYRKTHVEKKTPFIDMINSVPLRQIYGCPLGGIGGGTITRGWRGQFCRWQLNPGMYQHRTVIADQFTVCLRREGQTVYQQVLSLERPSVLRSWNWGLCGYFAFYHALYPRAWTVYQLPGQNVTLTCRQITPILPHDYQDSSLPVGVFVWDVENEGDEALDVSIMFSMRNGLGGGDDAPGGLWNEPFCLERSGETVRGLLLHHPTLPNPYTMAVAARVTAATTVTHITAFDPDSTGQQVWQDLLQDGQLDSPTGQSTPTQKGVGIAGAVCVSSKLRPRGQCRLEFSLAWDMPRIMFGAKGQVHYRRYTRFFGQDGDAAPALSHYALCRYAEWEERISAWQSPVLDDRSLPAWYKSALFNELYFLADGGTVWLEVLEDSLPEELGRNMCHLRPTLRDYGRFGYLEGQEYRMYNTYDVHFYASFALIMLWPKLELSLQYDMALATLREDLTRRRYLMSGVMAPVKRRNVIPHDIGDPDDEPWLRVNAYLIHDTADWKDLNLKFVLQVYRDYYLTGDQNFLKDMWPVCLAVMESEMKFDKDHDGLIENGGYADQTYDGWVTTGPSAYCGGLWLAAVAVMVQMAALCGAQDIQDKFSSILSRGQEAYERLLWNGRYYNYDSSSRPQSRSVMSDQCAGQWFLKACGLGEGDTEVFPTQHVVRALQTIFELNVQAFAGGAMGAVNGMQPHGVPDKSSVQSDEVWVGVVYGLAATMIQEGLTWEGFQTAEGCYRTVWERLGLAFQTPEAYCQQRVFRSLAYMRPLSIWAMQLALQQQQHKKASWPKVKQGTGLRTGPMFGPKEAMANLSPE
Put plainly: Determination of IC50 values for inhibition of GBA2 in cell lysate. In kind it is biochemical. Also on record: host or cells: HEK293T (lentiviral transduction, puromycin selection); used as cellular homogenate.
Conditions: not given
The source says:
Assay for Determination of IC50 Values for Inhibition of GBA2 in Cell Lysate
Stable GBA2-expressing HEK293T cells were generated as follows. The PCR-amplified human GBA2 (GBA2 nucleotide accession number BC011363) using the following primers: Sense 5′---CGCAAATGGGCGGTAGGCGTG (SEQ ID NO:2)---3′ and antisense 5′---TAGTCAGCCATGGGGCGGAGA (SEQ ID NO:3)---3′) was cloned into pLenti-GIII-CMV by ABM Inc. The correctness of the construct was verified by sequencing. Lentivirus particles containing GBA2 in the pLenti-GIII-CMV plasmid were prepared using a third Generation Virus Packaging Mix (ABM cat #LV053-G074) in HEK293T cells and supplied as a virus particle suspension. The virus suspension was used for infection of HEK293T cells. Cell populations stably expressing human GBA2 were selected using puromycin for several weeks as determined by activity assays and western blot.
Various concentrations of test compounds were prepared in DMSO and then diluted into buffer consisting of 100 mM citric acid, 200 mM disodium phosphate with 1% v/v C10E6, pH 5.5. Cellular homogenates (0.25 mg/mL) of the stable HEK293T-overexpressing GBA2 cell line were preincubated for 10 min on ice with an inhibitor of GCase (20 μM (6R,7R,8S)-8-ethyl-4-azaspiro[2.5]octane-6,7-diol). The reaction solution consisted of 20 μL of 750 μM 4-methylumbelliferone-β-D glucopyranoside in 5% DMSO in the same buffer, 20 μL of GBA2-cellular homogenate pre-treated with (6R,7R,8S)-8-ethyl-4-azaspiro[2.5]octane-6,7-diol and 20 μL of various concentrations of test compound in 10% DMSO in the same buffer. The final concentrations in the reaction were 0.083 mg/mL GBA2-cellular homogenate, 250 μM 4-methylumbelliferone-β-D glucopyranoside, and various concentrations of inhibitor. The inhibitor and GBA2-cellular homogenate were preincubated together for 5 min at 37° C. The reaction was initiated by addition of substrate and allowed to proceed for 20 min at 37° C. to assess GBA2 activity. Reactions were stopped by the addition of an equal volume (60 μL) of 0.5 M NaOH, 0.3 M glycine, pH 10.5. Fluorescence was measured on a Biotek Synergy H4 plate reader at wavelengths of 365 nm for excitation and 450 nm for emission. Incubations without added enzyme or added inhibitors were used to define no enzyme activity and maximal enzyme activity, respectively. IC50 values were determined by fitting the data to a log[inhibitor concentration] versus response curve using GraphPad Prism. IC50 values were calculated as the concentration of inhibitor required to inhibit GBA2 activity by 50%.
As for `C[C@@H]1[C@@H](O)[C@H](O)[C@@H](O)CN1CCc1ccc(OCC2CCOC2)cc1` (stereo partly drawn) [Example 65, (2R,3R,4R,5S)-2-methyl-1-(4-((tetrahydrofuran-3-yl)methoxy)phenethyl)piperidine-3,4,5-triol], the IC50 is under 100 nM. On to `O[C@H]1[C@H](O)[C@H](CF)N(CCc2ccccc2F)C[C@@H]1O` [Example 159, (2R,3R,4R,5S)-2-(fluoromethyl)-1-(2-fluorophenethyl)piperidine-3,4,5-triol], for which the 50% inhibitory concentration (IC50) was in the range of 1000 to 25000 nM.

For `C[C@@H]1[C@@H](O)[C@H](O)[C@@H](O)CN1CCc1c(F)cccc1F` [Example 48, (2R,3R,4R,5S)-1-(2,6-difluorophenethyl)-2-methylpiperidine-3,4,5-triol], the IC50 was under 100 nM. Same read-out and setting: with `C[C@@H]1[C@@H](O)[C@H](O)[C@@H](O)CN1CCc1ccsc1` [Example 75, (2R,3R,4R,5S)-2-methyl-1-(2-(thiophen-3-yl)ethyl)piperidine-3,4,5-triol] the figure was 100 to 1000 nM. On to `C[C@@H]1[C@@H](O)[C@H](O)[C@@H](O)CN1CCc1ccccc1` [Example 35, (2R,3R,4R,5S)-2-methyl-1-phenethylpiperidine-3,4,5-triol], for which the IC50 fell in the range of 100 to 1000 nM. The same measure, in the same setting: with `Cc1ccccc1CCN1C[C@H](O)[C@@H](O)[C@H](O)[C@H]1C` [Example 36, (2R,3R,4R,5S)-2-methyl-1-(2-methylphenethyl)piperidine-3,4,5-triol] the figure was 100 to 1000 nM.

Turning to `O[C@H]1[C@H](O)[C@@H](O)CN(CCc2ccccc2)[C@@H]1CF` [Example 148, (2S,3R,4R,5S)-2-(fluoromethyl)-1-phenethylpiperidine-3,4,5-triol], the IC50 is 100 to 1000 nM.

As for `O[C@H]1[C@H](O)[C@@H](O)CN(CCc2ccccc2F)[C@@H]1CF` [Example 149, (2S,3R,4R,5S)-2-(fluoromethyl)-1-(2-fluorophenethyl)piperidine-3,4,5-triol], the IC50 fell in the range of 100 to 1000 nM.

Still in this experiment, the particulars now being: cellular homogenate of HEK293T cells overexpressing human GBA2, 250 μM 4-methylumbelliferone-β-D glucopyranoside, pH 5.5, 37° C., GCase inhibitor present; read-out: GBA2 IC50.
As to `C[C@@H]1[C@@H](O)[C@H](O)[C@@H](O)CN1CC[C@H]1CC[C@H](C(F)(F)F)CC1` [Example 32, (2R,3R,4R,5S)-2-methyl-1-(2-((1r,4R)-4-(trifluoromethyl)cyclohexyl)ethyl)piperidine-3,4,5-triol], the IC50 was under 100 nM. Same read-out and setting: with `C[C@@H]1[C@@H](O)[C@H](O)[C@@H](O)CN1CC1CCN(C(=O)c2cccc(C(F)(F)F)c2)CC1` [Example 107, (3-(trifluoromethyl)phenyl)(4-(((2R,3R,4R,5S)-3,4,5-trihydroxy-2-methylpiperidin-1-yl)methyl)piperidin-1-yl)methanone] the figure was under 100 nM. On the same count and under the same terms, with `C[C@@H]1[C@@H](O)[C@H](O)[C@@H](O)CN1C[C@@H]1CCCN(c2nc(C(F)(F)F)cs2)C1` [Example 144, (2R,3R,4R,5S)-2-methyl-1-(((S)-1-(4-(trifluoromethyl)thiazol-2-yl)piperidin-3-yl)methyl)piperidine-3,4,5-triol] the figure was 100 to 1000 nM; with `C[C@@H]1[C@@H](O)[C@H](O)[C@@H](O)CN1C[C@H]1CC[C@H](C2CC2)CC1` [Example 21, (2R,3R,4R,5S)-1-(((1r,4R)-4-cyclopropylcyclohexyl)methyl)-2-methylpiperidine-3,4,5-triol], under 100 nM. Same read-out and setting: with `C[C@@H]1[C@@H](O)[C@H](O)[C@@H](O)CN1CC[C@H]1CC[C@@H](C(F)(F)F)CC1` [Example 31, (2R,3R,4R,5S)-2-methyl-1-(2-((1s,4S)-4-(trifluoromethyl)cyclohexyl)ethyl)piperidine-3,4,5-triol] the figure was under 100 nM; with `C[C@@H]1[C@@H](O)[C@H](O)[C@@H](O)CN1C[C@H](C)c1ccccc1` [Example 66, (2R,3R,4R,5S)-2-methyl-1-((R)-2-phenylpropyl)piperidine-3,4,5-triol], 100 to 1000 nM. Regarding `C[C@@H]1[C@@H](O)[C@H](O)[C@@H](O)CN1CC1CCN(C(=O)C2CCCCC2)CC1` [Example 101, cyclohexyl(4-(((2R,3R,4R,5S)-3,4,5-trihydroxy-2-methylpiperidin-1-yl)methyl)piperidin-1-yl)methanone], the IC50 fell in the range of 100 to 1000 nM. For `CC(C)C1CCC(CN2C[C@H](O)[C@@H](O)[C@H](O)[C@H]2CF)CC1` (stereo partly drawn) [Example 145, (2S,3R,4R,5S)-2-(fluoromethyl)-1-((4-isopropylcyclohexyl)methyl)piperidine-3,4,5-triol], the IC50 is under 100 nM.

In the case of `C[C@@H]1[C@@H](O)[C@H](O)[C@@H](O)CN1CC1CCCCC1` [Example 1, (2R,3R,4R,5S)-1-(cyclohexylmethyl)-2-methylpiperidine-3,4,5-triol], the IC50 was 100 to 1000 nM.

For the compound `C[C@@H]1[C@@H](O)[C@H](O)[C@@H](O)CN1CC1CCN(C(=O)[C@H]2CC[C@H](C(C)(C)C)CC2)CC1` [Example 103, ((1r,4R)-4-(tert-butyl)cyclohexyl)(4-(((2R,3R,4R,5S)-3,4,5-trihydroxy-2-methylpiperidin-1-yl)methyl)piperidin-1-yl)methanone], the IC50 is under 100 nM. On the same count and under the same terms, with `COCC1CCC(CN2C[C@H](O)[C@@H](O)[C@H](O)[C@H]2C)CC1` (stereo partly drawn) [Example 19, (2R,3R,4R,5S)-1-((4-(methoxymethyl)cyclohexyl)methyl)-2-methylpiperidine-3,4,5-triol] the figure was 100 to 1000 nM. Take `C[C@@H]1[C@@H](O)[C@H](O)[C@@H](O)CN1CC1CCC(C)(C)CC1` [Example 2, (2R,3R,4R,5S)-1-((4,4-dimethylcyclohexyl)methyl)-2-methylpiperidine-3,4,5-triol]: the IC50 fell in the range of 100 to 1000 nM.

In the case of `C[C@@H]1[C@@H](O)[C@H](O)[C@@H](O)CN1CCc1ccccn1` [Example 76, (2R,3R,4R,5S)-2-methyl-1-(2-(pyridin-2-yl)ethyl)piperidine-3,4,5-triol], the IC50 is 1000 to 25000 nM. With `C[C@@H]1[C@@H](O)[C@H](O)[C@@H](O)CN1C[C@H]1CCN(c2cccnc2C(F)(F)F)C1` [Example 126, (2R,3R,4R,5S)-2-methyl-1-(((R)-1-(2-(trifluoromethyl)pyridin-3-yl)pyrrolidin-3-yl)methyl)piperidine-3,4,5-triol], the IC50 was under 100 nM. Regarding `C[C@@H]1[C@@H](O)[C@H](O)[C@@H](O)CN1CC1CCN(C(=O)c2ccsc2)CC1` [Example 109, thiophen-3-yl(4-(((2R,3R,4R,5S)-3,4,5-trihydroxy-2-methylpiperidin-1-yl)methyl)piperidin-1-yl)methanone], the IC50 was 100 to 1000 nM. The same measure, in the same setting: with `C[C@@H]1[C@@H](O)[C@H](O)[C@@H](O)CN1CC1CCN(c2ccccc2F)CC1` [Example 83, (2R,3R,4R,5S)-1-((1-(2-fluorophenyl)piperidin-4-yl)methyl)-2-methylpiperidine-3,4,5-triol] the figure was under 100 nM; with `C[C@@H]1[C@@H](O)[C@H](O)[C@@H](O)CN1CCCc1cccs1` [Example 80, (2R,3R,4R,5S)-2-methyl-1-(3-(thiophen-2-yl)propyl)piperidine-3,4,5-triol], under 100 nM.
